In brackets after ≈: the same amount, converted by molar mass. Several values for one entry are separate records, joined by “and”; a condition that tells them apart may be missing. Equal values may be shown once. Read-outs that look alike come from different tables or passages of the source. One block for each compound: values may come before it.
Assays:
[1] = cited from earlier work
[2] = donor: pure buffer pH 2.0; cited from earlier work
[3] = In vitro permeability, Franz diffusion cell, regenerated cellulose membrane; type: in vitro ADME; conditions: for Papp at 5 h: read-out: Papp, Cellulose Membrane (RC)
Experimental: (§1) Permeability experiments were performed using the reverse dialysis set-up adapted to the Franz diffusion cell (PermeGear, Inc., Hellertown, PA, USA). This method was successfully applied by di Cagno et al. for the permeability evaluation of a whole set of diverse drugs. The donor solution of the investigated compound was placed in the lower chamber. The membrane was mounted between the donor and acceptor chambers. At the start of the experiment, the upper (acceptor) compartment was filled with the respective pure buffer. The donor solution was stirred with a magnetic stirrer bar. The samples of 0.5 mL were withdrawn from the receptor solution each 30 min over 5 h and replaced with the same volume of pure buffer. The volume of the donor solution in the lower compartment was 7 mL and the receptor volume was 1 mL. A schematic diagram of the equipment is illustrated in Figure 2.
(§2) Two types of barriers were applied for the permeability evaluation: the regenerated cellulose membrane (RC) with a molecular weight cut off MWCO 12–14 kDa (Standard Grade RC Dialysis Membrane, Flat Width 45 mm) and the PermeaPad (PP) barrier (PHABIOC, Germany, www.permeapad.com, accessed on 20 May 2021). The PermeaPad barrier was used as received from the supplier. The cellulose membrane was pretreated with distilled water for 30 min and the traces of water were removed with filter paper before use. The membrane effective surface area was 0.785 cm^2. Buffer solution pH 2.0 was applied throughout the experiment due to impossibility of the drug detection in the receptor solution at pH 7.4, where S-119 solubility is extremely low. […] The temperature of the system was maintained at 37.0 ± 0.1 °C. The concentrations of the sample solutions were measured using spectrophotometer (Spectramax 190; Molecular devices, Molecular Devices Corporation, California, CA, USA) in 96-well UV black plates (Costar) at λ = 261 nm. The permeation plots were constructed as the amount of the permeated drug over the surface area (dQ/A) versus time (t). Flux (J) was calculated as a slope of permeation plots by the equation:(2) J=dQ/A×dt
(§3) The slope (J) normalized by the concentration of the drug in the donor compartment (C0) represents the apparent permeability coefficient (Papp):(3) Papp=J/C0
(§4) The average value of Papp from at least 3 experiments was taken into consideration.

[4] = In vitro permeability, Franz diffusion cell, PermeaPad barrier; type: in vitro ADME; conditions: for Papp at 5 h: read-out: Papp, PermeaPad (PP)
Experimental: as §1, §2, §3, §4

[5] = cationic species of FCZ in acidic solution; second value, CD not printed (HP-β-CD assumed); cited from earlier work
[6] = cationic species of FCZ in acidic solution; first value, CD not printed (β-CD assumed); cited from earlier work
[7] = Complexation with β-CD (phase solubility, Higuchi and Connors); type: physicochemical; conditions: for Stability constant (KS): S-119/β-CD complex; for Stability constant (KS) / Complexation efficiency (CE) / Gibbs free energy of complexation (ΔGC0): 25 °C; for Complexation efficiency (CE): S-119/β-CD
Experimental: (§5) Excess amounts of S-119 were added to buffered aqueous solutions containing increasing concentrations of excipients.
(§6) In order to analyze the information on solubilization, micelle formation and complexation obtained in the present study, the standard Gibbs energy (at 25 °C) of the outlined processes was calculated by the following equations:(7) ΔGS0(Cexc)=−RTlnS2/S20, where ΔGS0(Cexc) —the standard free energy of solubilization—transferring a compound from the aqueous buffer solution to the excipient solution of a defined concentration (Cexc), S20 and S2 —the solubility of a drug in pure buffer and at a defined excipient concentration, respectively; R is the universal gas constant; T is the standard temperature of 25 °C (8) ΔGC^0=−RTlnKs where ΔGC0 is the change of the complexation Gibbs energy, KS is the stability constant of the complexation reaction (9) ΔGm/w0=−RTlnKm/w where ΔGm/w0 is the standard Gibbs energy of the partition between the micelle and water phases, Km/w is the partition coefficient.

[8] = cited from earlier work; remark: listed apart in the source
[9] = Complexation with HP-β-CD (phase solubility, Higuchi and Connors); type: physicochemical; conditions: for Gibbs free energy of complexation (ΔGC0) / Stability constant (KS) / Complexation efficiency (CE): 25 °C; for Stability constant (KS): S-119/HP-β-CD complex; for Complexation efficiency (CE): S-119/HP-β-CD
Experimental: as §5, §6

[10] = Phase solubility study: equilibrium solubility of S-119 in buffers with excipients; type: physicochemical; conditions: for solubility enhancement vs pure buffer: pH 2.0
Experimental: as §5, §6

[11] = parameters: method as in doi:10.1016/j.molliq.2021.116535; conditions: cited from earlier work
[12] = Micellar solubilization by non-ionic surfactants (solubilization capacity, micelle/water partition); conditions: F127; pH 7.4; 25 °C
Experimental: Moreover, the increase in the surfactant concentration can reduce the number of hydrogen binding sites available for the association of the compound and surfactant. At that point, the surfactant molecules interact with water, affect its structuring and hinder the interactions with positively charged species. […] To this end, the solubilization capacity (χ) representing the amount of the compound that can be solubilized by one mole of polymer was calculated using the following equation [53]:(4) χ=(S2−S20)/(Csurf−CMC) where S2 and S20 are the total solute solubility at a particular concentration of surfactant solution and the intrinsic solute solubility, respectively; Csurf is the surfactant concentration; CMC is the surfactant critical micelle concentration. All concentrations are expressed in molarity. Taking into account that above the CMC the concentration of surfactant monomers is equal to the CMC, the concentration of micelles can be determined as (Csurf − CMC). The CMC of Brij S20 and F127 were taken from the literature [54, 55, 56, 57]. […] Besides this, a micelle/water molar partition coefficient (Km/w) was derived using the following equation [58]:(5) Km/w=Sm/S20=(S2−S20)/S20
The favorable/unfavorable character of any process can be assessed using Gibbs free energy.

[13] = Complexation with O-M-β-CD (phase solubility, Higuchi and Connors); type: physicochemical; conditions: for Gibbs free energy of complexation (ΔGC0) / Stability constant (KS) / Complexation efficiency (CE): 25 °C; for Stability constant (KS): S-119/O-M-β-CD complex; for Complexation efficiency (CE): S-119/O-M-β-CD
Experimental: as §5, §6

[14] = Complexation with α-CD (phase solubility, Higuchi and Connors); type: physicochemical; conditions: for Stability constant (KS): S-119/α-CD complex; for Stability constant (KS) / Complexation efficiency (CE) / Gibbs free energy of complexation (ΔGC0): 25 °C; for Complexation efficiency (CE): S-119/α-CD
Experimental: as §5, §6

[15] = pH 2, donor: pure buffer pH 2.0, 37 °C
[16] = donor: 1.5 w/v% 6-O-M-β-CD in buffer pH 2.0, 37 °C
[17] = donor: 1.5 w/v% HP-β-CD in buffer pH 2.0, 37 °C
[18] = donor: 1.5 w/v% β-CD in buffer pH 2.0, 37 °C
[19] = donor: pure buffer pH 2.0, 37 °C
[20] = pH 2, donor: 1.5 w/v% 6-O-M-β-CD in buffer pH 2.0, 37 °C
[21] = pH 2, donor: 1.5 w/v% HP-β-CD in buffer pH 2.0, 37 °C
[22] = pH 2, donor: 1.5 w/v% β-CD in buffer pH 2.0, 37 °C

flux J, Cellulose Membrane (RC) ([3]; 5 h, pH 2): 1.31 × 10^−4 µM∙cm^−2∙s^−1 | Papp at 5 h [3, 15]: 49 ×10⁻⁶ cm/s | flux J, PermeaPad (PP) ([4]; 5 h, pH 2): 3.50 × 10^−5 µM∙cm^−2∙s^−1
SMILES: OC(Cn1cncn1)(Cn1cncn1)c1ccc(F)cc1F [FCZ, fluconazole]
solubility growth ([1]; 0.0016 M aqueous β-CD solution): 1.1 fold | solubility increase ([1]; 0.004 M HP-β-CD): 1.2 fold | higher solubility ([1]; 0.08 M aqueous HP-β-CD): 4 fold | solubility enhancement ([1]; aqueous 0.02 M β-CD): 1.84 fold | Papp, PermeaPad (PP) [2]: (1.74 ± 0.03) × 10^−5 cm∙s^−1 | KS [5]: 13.5 M⁻¹ | KS [6]: 10.7 M⁻¹

SMILES: OC(CN1CCN(CC(O)(Cn2cncn2)c2ccc(F)cc2F)CC1)(Cn1cncn1)c1ccc(F)cc1F (stereo not drawn) [S-119, 3,3′-(piperazine-1,4-diyl)bis(2-(2,4-difluorophenyl)-1-(1H-1,2,4-triazol-1-yl)propan-2-ol)]
permeability decrease vs pure buffer ([3]; RC membrane, 1.5 w/v% HP-β-CD donor solution, pH 2.0): 1.87 fold | flux J, Cellulose Membrane (RC) [3, 16]: 2.68 × 10^−5 µM∙cm^−2∙s^−1 | flux J, Cellulose Membrane (RC) [3, 17]: 2.21 × 10^−5 µM∙cm^−2∙s^−1 | flux J, Cellulose Membrane (RC) [3, 18]: 2.90 × 10^−5 µM∙cm^−2∙s^−1 | flux J, Cellulose Membrane (RC) [3, 19]: 3.49 × 10^−5 µM∙cm^−2∙s^−1 | Papp at 5 h [3, 20]: 23.1 ×10⁻⁶ cm/s | Papp at 5 h [3, 21]: 14.5 ×10⁻⁶ cm/s | Papp at 5 h [3, 22]: 19.6 ×10⁻⁶ cm/s | Papp at 5 h [3, 15]: 27.1 ×10⁻⁶ cm/s | permeability class (classification of di Cagno et al. for PermeaPad) ([4]; 1.5 w/v% CDs in donor solution, pH 2.0): low-medium permeability class | permeability decrease vs pure buffer ([4]; PP barrier, 1.5 w/v% O-M-β-CD donor solution, pH 2.0): 2.63 fold | permeability class (classification of di Cagno et al. for PermeaPad) ([4]; buffer pH 2.0): highly permeated substance | flux J, PermeaPad (PP) [4, 16]: 1.01 × 10^−5 µM∙cm^−2∙s^−1 | flux J, PermeaPad (PP) [4, 17]: 1.00 × 10^−5 µM∙cm^−2∙s^−1 | flux J, PermeaPad (PP) [4, 18]: 9.93 × 10^−6 µM∙cm^−2∙s^−1 | flux J, PermeaPad (PP) [4, 19]: 2.20 × 10^−5 µM∙cm^−2∙s^−1 | Papp at 5 h [4, 20]: 5.62 ×10⁻⁶ cm/s | Papp at 5 h [4, 21]: 7.81 ×10⁻⁶ cm/s | Papp at 5 h [4, 22]: 6.12 ×10⁻⁶ cm/s | Papp at 5 h [4, 15]: 14.8 ×10⁻⁶ cm/s | Stability constant (KS) ([7]; pH 2.0): 27.4 ± 1.0 M⁻¹ and 27.4 M⁻¹ | Stability constant (KS) ([7]; pH 7.4): 4424.9 ± 162.7 M⁻¹ | Complexation efficiency (CE) ([7]; pH 2.0): 12.2% | Complexation efficiency (CE) ([7]; pH 7.4): 17.7% | phase solubility diagram type (Higuchi and Connors classification) ([7]; β-CD, linear region 0 to 0.003 M CD): BS-type | Gibbs free energy of complexation (ΔGC0) ([7]; β-CD, pH 2.0): -1.96 kcal/mol | complex stability relative to FCZ complex ([7]; β-CD, pH 7.4): 47 fold | Gibbs free energy of complexation (ΔGC0) ([7]; β-CD, pH 7.4): -4.974 kcal/mol | logD^oct [8]: 1.43 | phase solubility diagram type (Higuchi and Connors classification) ([9]; HP-β-CD, both pHs): AL-type | Gibbs free energy of complexation (ΔGC0) ([9]; HP-β-CD, pH 2.0): -1.57 kcal/mol | complex stability relative to FCZ complex ([9]; HP-β-CD, pH 7.4): 52 fold | Gibbs free energy of complexation (ΔGC0) ([9]; HP-β-CD, pH 7.4): -4.577 kcal/mol | Stability constant (KS) ([9]; pH 2.0): 14.0 ± 0.6 M⁻¹ | Stability constant (KS) ([9]; pH 7.4): 2261.0 ± 79.0 M⁻¹ | Complexation efficiency (CE) ([9]; pH 2.0): 6.2% | Complexation efficiency (CE) ([9]; pH 7.4): 9.1% | solubility growth vs pure buffer ([10]; 0.0015 M β-CD, pH 7.4): 6.8 fold | solubility growth vs pure buffer ([10]; 0.01 M HP-β-CD, pH 7.4): 24 fold | solubility growth vs pure buffer ([10]; 0.07 M HP-β-CD, pH 7.4): 151 fold | solubility growth vs pure buffer ([10]; 20% PVP): 232 fold | solubility enhancement vs pure buffer ([10]; 10 w/v% PEG 6000): 1.45 fold | solubility enhancement vs pure buffer ([10]; 10 w/v% PEG 35000): 1.20 fold | solubility enhancement vs pure buffer ([10]; 10 w/v% PVP): 1.32 fold | growth of solubility vs pure buffer ([10]; pH 7.4, 10 w/v% Brij S20): 199 fold | growth of solubility vs pure buffer ([10]; pH 7.4, 10 w/v% F-127): 281 fold | extent of the solubilization vs pure buffer ([10]; pH 7.4, PEG 6000): 193 fold | extent of the solubilization vs pure buffer ([10]; pH 7.4, PVP): 232 fold | solubility in aqueous solutions ([11]; pH 2.0): 4450 µM (≈ 2490 µg/mL) | solubility in aqueous solutions ([11]; pH 7.4): 40.1 µM (≈ 22.5 µg/mL) | Gibbs free energy of micelle formation (ΔGm/w0) [12]: -6.205 kcal/mol | phase solubility diagram type (Higuchi and Connors classification) ([13]; O-M-β-CD, both pHs): AL-type | Gibbs free energy of complexation (ΔGC0) ([13]; O-M-β-CD, pH 2.0): -1.74 kcal/mol | Gibbs free energy of complexation (ΔGC0) ([13]; O-M-β-CD, pH 7.4): -4.866 kcal/mol | Stability constant (KS) ([13]; pH 2.0): 18.7 ± 0.7 M⁻¹ | Stability constant (KS) ([13]; pH 7.4): 3693.4 ± 185.3 M⁻¹ | Complexation efficiency (CE) ([13]; pH 2.0): 8.3% | Complexation efficiency (CE) ([13]; pH 7.4): 14.8% | Stability constant (KS) ([14]; pH 2.0): 5.0 ± 0.2 M⁻¹ and 5 M⁻¹ | Stability constant (KS) ([14]; pH 7.4): 304.4 ± 17 M⁻¹ | Complexation efficiency (CE) ([14]; pH 2.0): 2.2% | Complexation efficiency (CE) ([14]; pH 7.4): 1.2% | phase solubility diagram type (Higuchi and Connors classification) ([14]; α-CD, both pHs): AL-type | Gibbs free energy of complexation (ΔGC0) ([14]; α-CD, pH 2.0): -0.956 kcal/mol | Gibbs free energy of complexation (ΔGC0) ([14]; α-CD, pH 7.4): -3.387 kcal/mol

Reference: PMC8621413, “New Antifungal Compound: Impact of Cosolvency, Micellization and Complexation on Solubility and Permeability Processes” (Pharmaceutics, 2021)
